In brackets after ≈: the same amount, converted by molar mass. One block for each molecule: values may come before it.
Assays:
dCTP pyrophosphatase 1 = molecular target: T1, dCTP pyrophosphatase 1 (Homo sapiens, UniProt Q9H773); assay: Inhibition of human recombinant full length dCTPase expressed in Escherichia coli BL21(DE3)pLysS using dCTP as substrate after 1 hr by HTS-adapted Malachite Green assay
T1 sequence (Q9H773 whole entry): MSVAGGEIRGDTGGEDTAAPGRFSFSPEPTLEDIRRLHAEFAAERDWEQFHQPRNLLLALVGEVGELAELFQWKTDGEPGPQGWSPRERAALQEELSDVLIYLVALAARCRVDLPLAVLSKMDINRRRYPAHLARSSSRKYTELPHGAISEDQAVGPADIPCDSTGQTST

[1] = Half life in mouse liver microsomes; format: ADME
Liver microsome = assay: Half life in human liver microsomes; format: ADME
[2] = Aqueous solubility of the compound; format: physicochemical; conditions: buffer
[3] = Metabolic stability of plasma (unknown origin) assessed as compound remaining after 4 hrs; format: ADME, cell-free; conditions: read-out: Stability
[4] = Fraction unbound in plasma (unknown origin); format: ADME, cell-free
[5] = Efflux ratio of apparent permeability of the compound; format: ADME
Cytochrome P450 3A4 [6] = molecular target: T2, Cytochrome P450 3A4 (Homo sapiens, UniProt P08684); assay: Inhibition of CYP3A4 (unknown origin) using testostrone as substrate preincubated for 10 mins followed by NADPH addition by LC/MS/MS analysis; format: ADME
Cytochrome P450 2C19 = Cytochrome P450 2C19 (Homo sapiens, UniProt P33261); assay: Inhibition of CYP2C19 (unknown origin) using mephenytoin as substrate preincubated for 10 mins followed by NADPH addition by LC/MS/MS analysis; format: ADME
[7] = Apparent permeability of the compound from apical to basolateral side; format: physicochemical
Cytochrome P450 3A4 [8] = molecular target: T2, Cytochrome P450 3A4; assay: Inhibition of CYP3A4 (unknown origin) using midazolam as substrate preincubated for 10 mins followed by NADPH addition by LC/MS/MS analysis; format: ADME
Cytochrome P450 1A2 = molecular target: T3, Cytochrome P450 1A2 (Homo sapiens, UniProt P05177); assay: Inhibition of CYP1A2 (unknown origin) using phenacetin as substrate preincubated for 10 mins followed by NADPH addition by LC/MS/MS analysis; format: ADME
T3 sequence (P05177 whole entry): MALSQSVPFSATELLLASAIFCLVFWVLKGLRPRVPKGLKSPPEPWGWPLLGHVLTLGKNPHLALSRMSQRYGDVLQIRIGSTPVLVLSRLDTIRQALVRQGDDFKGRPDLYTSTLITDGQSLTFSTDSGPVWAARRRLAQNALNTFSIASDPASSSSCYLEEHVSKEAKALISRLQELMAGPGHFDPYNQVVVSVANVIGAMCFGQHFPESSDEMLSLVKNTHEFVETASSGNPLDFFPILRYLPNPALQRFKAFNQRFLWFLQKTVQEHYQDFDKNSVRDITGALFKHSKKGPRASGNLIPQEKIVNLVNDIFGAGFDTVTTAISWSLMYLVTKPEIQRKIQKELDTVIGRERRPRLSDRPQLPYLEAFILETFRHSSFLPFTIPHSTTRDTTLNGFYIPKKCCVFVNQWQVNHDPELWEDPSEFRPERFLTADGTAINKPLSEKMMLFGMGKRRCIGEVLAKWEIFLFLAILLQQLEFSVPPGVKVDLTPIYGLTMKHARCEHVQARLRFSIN

Cytochrome P450 2C9 = Cytochrome P450 2C9 (Homo sapiens, UniProt P11712); assay: Inhibition of CYP2C9 (unknown origin) using diclofenac as substrate preincubated for 10 mins followed by NADPH addition by LC/MS/MS analysis; format: ADME
Cytochrome P450 2D6 = Cytochrome P450 2D6 (Homo sapiens, UniProt P10635); assay: Inhibition of CYP2D6 (unknown origin) using bufuralol as substrate preincubated for 10 mins followed by NADPH addition by LC/MS/MS analysis; format: ADME
[9] = Mutagenicity in human HL60 cells assessed as Chk1 phosphorylation at S345 by Western blot analysis; format: toxicity, cell-based; conditions: hl-60
[10] = Photostability of compound at room temperature after 5 months by LC/MS analysis; format: physicochemical; conditions: 3652.5 h
[11] = Mutagenicity in human HL60 cells assessed as 53BP1 foci formation at 2.5 uM after 24 hrs by immunofluorescence staining-based Zeiss LSM-780 confocal microscopy; format: toxicity, cell-based; conditions: hl-60, 24 h
[12] = Mutagenicity in human HL60 cells assessed as gammaH2AX foci formation at 2.5 uM after 24 hrs by immunofluorescence staining-based Zeiss LSM-780 confocal microscopy; format: toxicity, cell-based; conditions: hl-60, 24 h
[13] = Mutagenicity in human HL60 cells assessed as caspase 3 cleavage by Western blot analysis; format: toxicity, cell-based; conditions: hl-60

T2 sequence (P08684 whole entry): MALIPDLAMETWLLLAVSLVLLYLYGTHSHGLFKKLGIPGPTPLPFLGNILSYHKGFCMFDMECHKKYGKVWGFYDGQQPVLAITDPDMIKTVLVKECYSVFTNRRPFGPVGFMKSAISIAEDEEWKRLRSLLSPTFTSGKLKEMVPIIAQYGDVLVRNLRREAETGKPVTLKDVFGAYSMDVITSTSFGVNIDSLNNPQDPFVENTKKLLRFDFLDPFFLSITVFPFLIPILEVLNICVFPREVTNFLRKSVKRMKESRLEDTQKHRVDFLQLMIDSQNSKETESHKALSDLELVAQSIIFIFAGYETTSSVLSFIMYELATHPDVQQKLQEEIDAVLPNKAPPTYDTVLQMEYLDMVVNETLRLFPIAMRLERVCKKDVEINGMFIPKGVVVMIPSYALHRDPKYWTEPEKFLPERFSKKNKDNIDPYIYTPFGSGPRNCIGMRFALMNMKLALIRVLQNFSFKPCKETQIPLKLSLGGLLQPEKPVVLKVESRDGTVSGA
Chain of Cytochrome P450 2C9 (P11712 whole entry): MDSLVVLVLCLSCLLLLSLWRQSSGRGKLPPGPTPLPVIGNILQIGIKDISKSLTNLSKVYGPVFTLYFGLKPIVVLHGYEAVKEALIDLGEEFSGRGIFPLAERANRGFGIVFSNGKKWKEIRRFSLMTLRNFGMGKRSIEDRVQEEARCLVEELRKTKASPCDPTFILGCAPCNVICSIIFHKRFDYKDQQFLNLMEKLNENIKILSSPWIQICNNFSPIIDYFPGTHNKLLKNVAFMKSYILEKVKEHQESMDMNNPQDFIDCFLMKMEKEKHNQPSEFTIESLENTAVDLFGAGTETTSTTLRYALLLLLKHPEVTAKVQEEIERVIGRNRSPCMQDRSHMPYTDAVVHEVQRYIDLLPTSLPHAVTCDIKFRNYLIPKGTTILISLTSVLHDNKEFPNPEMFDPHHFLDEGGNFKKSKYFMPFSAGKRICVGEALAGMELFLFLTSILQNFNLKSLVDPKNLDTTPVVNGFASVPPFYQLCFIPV
Chain of Cytochrome P450 2D6 (P10635 whole entry): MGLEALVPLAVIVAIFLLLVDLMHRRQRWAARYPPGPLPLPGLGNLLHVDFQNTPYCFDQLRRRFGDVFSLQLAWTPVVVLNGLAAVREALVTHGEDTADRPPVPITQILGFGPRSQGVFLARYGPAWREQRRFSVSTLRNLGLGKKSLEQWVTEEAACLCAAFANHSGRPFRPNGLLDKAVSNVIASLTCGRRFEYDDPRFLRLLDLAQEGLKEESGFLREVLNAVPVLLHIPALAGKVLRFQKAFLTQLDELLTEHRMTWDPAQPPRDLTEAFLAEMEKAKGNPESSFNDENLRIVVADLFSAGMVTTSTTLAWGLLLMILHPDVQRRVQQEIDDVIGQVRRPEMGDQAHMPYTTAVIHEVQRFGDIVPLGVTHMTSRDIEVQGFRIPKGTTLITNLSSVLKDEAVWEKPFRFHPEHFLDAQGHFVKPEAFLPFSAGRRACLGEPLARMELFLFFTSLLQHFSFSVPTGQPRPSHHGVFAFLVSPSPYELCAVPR
Chain of Cytochrome P450 2C19 (P33261 whole entry): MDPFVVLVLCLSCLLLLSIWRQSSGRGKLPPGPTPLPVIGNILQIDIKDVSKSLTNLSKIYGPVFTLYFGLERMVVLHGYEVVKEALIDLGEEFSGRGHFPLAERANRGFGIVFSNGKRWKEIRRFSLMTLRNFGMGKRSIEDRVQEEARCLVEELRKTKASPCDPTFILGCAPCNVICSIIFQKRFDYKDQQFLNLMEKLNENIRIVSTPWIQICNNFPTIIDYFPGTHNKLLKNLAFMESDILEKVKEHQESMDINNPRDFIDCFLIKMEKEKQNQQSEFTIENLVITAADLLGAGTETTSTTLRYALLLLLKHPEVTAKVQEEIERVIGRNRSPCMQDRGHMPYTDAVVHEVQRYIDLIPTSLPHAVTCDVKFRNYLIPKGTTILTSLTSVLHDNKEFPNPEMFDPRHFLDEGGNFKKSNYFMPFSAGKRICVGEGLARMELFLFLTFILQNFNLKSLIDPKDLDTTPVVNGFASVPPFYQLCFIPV

Structure (SMILES): COc1ccc(Cn2cnc3ccccc32)cc1
IC50 (dCTP pyrophosphatase 1): > 100 µM

Structure (SMILES): Cc1nc2cc(Cl)c(Cl)cc2n1Cc1ccc(B(O)O)cc1
IC50 (dCTP pyrophosphatase 1): 0.248 µM

Structure (SMILES): COc1ccc(Cn2c(C)nc3c([N+](=O)[O-])cccc32)cc1
IC50 (dCTP pyrophosphatase 1): 1.45 µM

Structure (SMILES): CC(=O)Oc1ccc(Cn2c(C)nc3c([N+](=O)[O-])c(Cl)c(Cl)cc32)cc1
IC50 (dCTP pyrophosphatase 1): 0.034 µM

Structure (SMILES): O=[N+]([O-])c1c(Cl)c(Cl)cc2c1nc(C1CC1)n2Cc1ccc(B(O)O)cc1
t1/2 [1]: 13 min
t1/2 (Liver microsome): 268 min

Structure (SMILES): Cc1nc2c([N+](=O)[O-])c(Cl)c(Cl)cc2n1Cc1ccccc1B(O)O
IC50 (dCTP pyrophosphatase 1): 0.082 µM

Structure (SMILES): Cc1nc2c([N+](=O)[O-])c(F)c(F)cc2n1Cc1ccc(B(O)O)cc1
IC50 (dCTP pyrophosphatase 1): 0.529 µM

Structure (SMILES): Cc1n[nH]c(C)c1CCn1c(C)nc2c([N+](=O)[O-])c(Cl)c(Cl)cc21
t1/2 [1]: 7 min
IC50 (dCTP pyrophosphatase 1): 0.19 µM
t1/2 (Liver microsome): 6 min

Structure (SMILES): Cc1nc2c([N+](=O)[O-])c(Cl)c(Cl)cc2n1C(=O)c1ccccc1
IC50 (dCTP pyrophosphatase 1): 0.096 µM

Structure (SMILES): COc1ccc(Cn2cnc3cc(C)c(C)cc32)cc1
IC50 (dCTP pyrophosphatase 1): > 100 µM

Structure (SMILES): Cc1nc2c([N+](=O)[O-])c(Cl)c(Cl)cc2n1Cc1ccc(-n2cccc2)cc1
IC50 (dCTP pyrophosphatase 1): 0.331 µM

Structure (SMILES): Cc1nc2c([N+](=O)[O-])c(Cl)c(Cl)cc2n1Cc1ccc(-n2cccn2)cc1
t1/2 [1]: 22 min
IC50 (dCTP pyrophosphatase 1): 0.075 µM
t1/2 (Liver microsome): 38 min

Structure (SMILES): Cc1nc2c([N+](=O)[O-])c(Cl)c(Cl)cc2n1Cc1ccc(C#N)cc1
IC50 (dCTP pyrophosphatase 1): 0.165 µM

Structure (SMILES): COc1ccc(Cn2c(C)nc3ccccc32)cc1
IC50 (dCTP pyrophosphatase 1): > 100 µM

Structure (SMILES): Cc1nc2c([N+](=O)[O-])c(Cl)c(Cl)cc2n1Cc1ccc(Cl)nc1
IC50 (dCTP pyrophosphatase 1): 0.185 µM

Structure (SMILES): Cc1nc2c([N+](=O)[O-])c(Cl)c(Cl)cc2n1Cc1ccc(B2OC(=O)CN(C)CC(=O)O2)cc1
Ratio [5]: 1.51
solubility [2]: > 100 µM
t1/2 [1]: 109 min
IC50 (Cytochrome P450 3A4 [6]): 21.9 µM
IC50 (Cytochrome P450 2C19): 2.93 µM
Papp [7]: 86.6 nm/s
IC50 (Cytochrome P450 3A4 [8]): 28.1 µM
IC50 (dCTP pyrophosphatase 1): 0.047 µM
IC50 (Cytochrome P450 1A2): 377 µM
remaining at 4 h [3]: 86%
IC50 (Cytochrome P450 2C9): 1.72 µM
IC50 (Cytochrome P450 2D6): 16.8 µM
t1/2 (Liver microsome): 11 min
Fu [4]: 0.8%

Structure (SMILES): COc1ccc(Cn2c(C)nc3c([N+](=O)[O-])c(C)c(C)cc32)cc1
IC50 (dCTP pyrophosphatase 1): 0.057 µM

Structure (SMILES): Cc1cc2c(nc(C)n2C(C)c2ccccc2)c([N+](=O)[O-])c1C (centres undefined)
IC50 (dCTP pyrophosphatase 1): 0.25 µM

Structure (SMILES): Cc1nc2c([N+](=O)[O-])c(Cl)c(Cl)cc2n1Cc1ccc(B(O)O)cc1
solubility [2]: 52 µM (≈ 19.8 µg/mL)
t1/2 [1]: 197 min
Activity [9]: Non-toxic
Stability [10]: Stable
IC50 (dCTP pyrophosphatase 1): 0.046 µM
remaining at 4 h [3]: 11%
Activity [11]: Non-toxic
Activity [12]: Non-toxic
t1/2 (Liver microsome): 72 min
Activity [13]: Non-toxic
Fu [4]: 0.1%

Structure (SMILES): Cc1ccc(Cn2c(C)nc3c([N+](=O)[O-])c(Cl)c(Cl)cc32)cc1
IC50 (dCTP pyrophosphatase 1): 0.019 µM

Now from value to molecule:

IC50 (dCTP pyrophosphatase 1): 0.073 µM
Structure (SMILES): Cc1nc2c([N+](=O)[O-])c(Cl)c(Cl)cc2n1Cc1ccc(C(=O)O)cc1

IC50 (dCTP pyrophosphatase 1): 0.049 µM
Structure (SMILES): Cc1nc2c([N+](=O)[O-])c(Cl)c(Cl)cc2n1Cc1ccccc1

IC50 (dCTP pyrophosphatase 1): 22 µM
Structure (SMILES): COc1ccc(Cn2c(C)nc3cc(C)c(C)cc32)cc1

IC50 (dCTP pyrophosphatase 1): 0.133 µM
Structure (SMILES): Cc1nc2c([N+](=O)[O-])c(Cl)c(Cl)cc2n1Cc1ccc(C=O)cc1

IC50 (dCTP pyrophosphatase 1): 12 µM
Structure (SMILES): COc1ccc(Cn2c(C)nc3cc(Cl)c(Cl)cc32)cc1

IC50 (dCTP pyrophosphatase 1): 0.046 µM
Structure (SMILES): Cc1nc2c([N+](=O)[O-])c(Cl)c(Cl)cc2n1Cc1cccc(B(O)O)c1

IC50 (dCTP pyrophosphatase 1): 0.095 µM
Structure (SMILES): COC(=O)c1ccc(Cn2c(C)nc3c([N+](=O)[O-])c(Cl)c(Cl)cc32)cc1

IC50 (dCTP pyrophosphatase 1): 0.085 µM
Structure (SMILES): Cc1nc2c([N+](=O)[O-])c(Cl)c(Cl)cc2n1-c1ccccc1

IC50 (dCTP pyrophosphatase 1): 0.24 µM
Structure (SMILES): Cc1nc(Cn2c(C)nc3c([N+](=O)[O-])c(Cl)c(Cl)cc32)cs1

solubility [2]: 11 µM (≈ 3.87 µg/mL)
IC50 (dCTP pyrophosphatase 1): 0.021 µM
remaining at 4 h [3]: 96%
Fu [4]: 0.7%
Structure (SMILES): Cc1nc2c([N+](=O)[O-])c(Cl)c(Cl)cc2n1Cc1ccc(O)cc1

IC50 (dCTP pyrophosphatase 1): 0.205 µM
Structure (SMILES): Cc1nc2c([N+](=O)[O-])c(Cl)c(Cl)cc2n1CCc1ccc(B(O)O)cc1

t1/2 [1]: 8 min
t1/2 (Liver microsome): 30 min
Structure (SMILES): COc1ccc(Cn2c(C)nc3c([N+](=O)[O-])c(Cl)c(Cl)cc32)cc1
